The compounds below were run against HIV-1 PR (Human immunodeficiency virus type 1 group M subtype B, UniProt P04585) (assay: HIV-protease inhibitory activity assay (FRET peptide substrate)). Conditions: Test Example 1.
Format: biochemical
Protocol: Test Example 1: HIV-Protease Inhibitory Activity Assay
The HIV-1 PR assay was performed by using a FRET (Fluorescence Resonance Energy Transfer) peptide substrate (AnaSpec, Inc., Fremont, Calif.). Initially in the intact FRET peptide, the fluorescence of HiLyte Fluor 488 is quenched by QXL 520. Upon substrate cleavage by PR, the fluorescence is recovered and can be monitored. Test compounds diluted in DMSO was plated to the wells of 384-well plate. Then, mixed with assay buffer (0.1 mol/L NaAc containing 0.5 mol/L NaCl, 1 mmol/L EDTA, 1 mmol/L DTT, and 0.05% Tween 20, pH 4.8) in the presence or absence of HIV-1 PR (0.83 ng), and let it stand for 5 minutes at room temperature. Background fluorescence intensity was measured and let it stand for another 15 minutes at room temperature. The enzyme reaction was started by adding substrate diluted in assay buffer at final concentration of 2 μmol/L, and let it stand for 60 minutes at room temperature. After 60 minutes, the fluorescence intensity was measured. Fluorescence intensity was measured with excitation and emission wavelengths of 485 nm and 535 nm, respectively.
IC50 values were determined using non-linear regression four-parameter logistic equation, y=A+((B−A)/(1+((C/x)̂D))) where A=minimum inhibition, B=maximum inhibition, C=log IC50, D=slope factor, x=concentration of compound and y=% inhibition.

SMILES	IC50
COc1ccc(S(=O)(=O)N(CC(C)C)CC(O)C(Cc2ccc(OCc3ccccc3-n3nc4c(c3C(=O)O)CC(c3ccccc3)CC4)cc2)NC(=O)OC2COC3(C)OCCC23)cc1 (centres unmarked) [Compound I-144]	0.8 nM
COc1ccc(S(=O)(=O)N(CC(C)C)CC(O)C(Cc2ccc(Oc3ccc(-c4sc5c(c4C(=O)O)CC(C)(C)CC5)cc3)cc2)NC(=O)OC2COC3(C)OCCC23)cc1 (centres unmarked) [Compound I-133]	1.53 nM
COc1ccc(S(=O)(=O)N(CC(C)C)CC(O)C(Cc2ccc(OCc3ccccc3-c3sc(N4CCC(C)(C)CC4)nc3C(=O)O)cc2)NC(=O)OC2COC3OCCC23)cc1 (centres unmarked) [Compound I-845]	0.85 nM
COc1ccc(S(=O)(=O)N(CC2CCC(=O)N2)CC(O)C(Cc2ccc(OCc3ccccc3-c3sc4c(c3C(=O)O)CC(C)(C)CC4)cc2)NC(=O)OC2COC3OCCC23)cc1 (centres unmarked) [Compound I-838]	0.76 nM
COc1ccc(S(=O)(=O)N(CC(C)C)CC(O)C(Cc2ccc(NCc3cccc(-c4sc5c(c4C(=O)O)CC(C)(C)CC5)c3F)cc2)NC(=O)OC2COC3(C)OCCC23)cc1 (centres unmarked) [Compound I-543]	2.14 nM
COc1ccc(S(=O)(=O)N(CC(C)C)C[C@@H](O)[C@H](Cc2ccccc2)NC(=O)O[C@H]2CO[C@@]3(CNC(=O)OCCCc4sc5c(c4C(=O)O)CC(C)(C)CC5)OCC[C@@H]23)cc1 [Compound I-34]	1.28 nM
COc1ccc(S(=O)(=O)N(CC(C)C)CC(O)C(Cc2ccc(N3CCC(c4sc5c(c4C(=O)O)CC(C)(C)CC5)CC3)cc2)NC(=O)OC2COC3(C)OCCC23)cc1 (centres unmarked) [Compound I-227]	3.26 nM
COc1ccc(S(=O)(=O)N(CC(C)C)CC(O)C(Cc2ccc(OC3CCCN(c4ccc(C#N)cc4-c4sc5c(c4C(=O)O)CC(C)(C)CC5)C3)cc2)NC(=O)OC2COC3(C)OCCC23)cc1 (centres unmarked) [Compound I-331]	12.3 nM
COc1ccc(S(=O)(=O)N(CC(C)C)CC(O)C(Cc2ccc(N3CC4CN(C(=O)c5sc6c(c5C(=O)O)CC(C)(C)CC6)CC4C3)cc2)NC(=O)OC2COC3(C)OCCC23)cc1 (centres unmarked) [Compound I-223]	1.97 nM
COc1ccc(S(=O)(=O)N(CC(C)C)CC(O)C(Cc2ccc(NCC3=C(c4sc5c(c4C(=O)O)CC(C)(C)CC5)COC3)cc2)NC(=O)OC2COC3(C)OCCC23)cc1 (centres unmarked) [Compound I-527]	1.99 nM
COc1ccc(S(=O)(=O)N(CC(C)C)CC(O)C(Cc2ccc(Oc3ccc(-c4sc5c(c4C(=O)O)CC(C)(C)CC5)c(C(F)(F)F)c3)cc2)NC(=O)OC2COC3(C)OCCC23)cc1 (centres unmarked) [Compound I-135]	6.8 nM
COc1ccc(S(=O)(=O)N(CC(C)C)CC(O)C(Cc2ccc(OCc3ccccc3-c3sc4c(c3C(=O)O)CC(C)(C)CC4)cc2)NC(=O)OC2COC3(C)OCC(O)C23)cc1 (centres unmarked) [Compound I-56]	1.21 nM
COc1ccc(S(=O)(=O)N(CC(C)C)CC(O)C(Cc2ccc(OCC3CCCN(c4ccc(C#N)cc4-c4sc5c(c4C(=O)O)CC(C)(C)CC5)C3)cc2)NC(=O)OC2COC3(C)OCCC23)cc1 (centres unmarked) [Compound I-328]	12.8 nM
COc1ccc(S(=O)(=O)N(CC(C)C)CC(O)C(Cc2ccc(NCC3=C(c4sc5c(c4C(=O)O)CC(C)(C)CC5)CCN(C)C3)cc2)NC(=O)OC2COC3(C)OCCC23)cc1 (centres unmarked) [Compound I-403]	2.3 nM
COc1ccc(S(=O)(=O)N(CC(C)C)CC(O)C(Cc2ccc(NCc3ccc(-c4ccc(-c5sc6c(c5C(=O)O)CC(C)(C)CC6)cc4)cc3)cc2)NC(=O)OC2COC3(C)OCCC23)cc1 (centres unmarked) [Compound I-285]	7.76 nM
COc1ccc(S(=O)(=O)N(CC(C)C)CC(O)C(Cc2ccc(CN(C)C3CCCCC3c3sc4c(c3C(=O)O)CC(C)(C)CC4)cc2)NC(=O)OC2COC3(C)OCCC23)cc1 (centres unmarked) [Compound I-341]	1.89 nM
COc1ccc(S(=O)(=O)N(CC(C)C)CC(O)C(Cc2ccc(NCc3c(F)cccc3C(=O)Nc3sc4c(c3C(=O)O)CC(C)(C)CC4)cc2)NC(=O)OC2COC3(C)OCCC23)cc1 (centres unmarked) [Compound I-748]	2.39 nM
COc1ccc(S(=O)(=O)N(CC(C)C)CC(O)C(Cc2ccc(N3CCc4c(cccc4-c4sc5c(c4C(=O)O)CC(C)(C)CC5)C3)cc2)NC(=O)OC2COC3(C)OCCC23)cc1 (centres unmarked) [Compound I-226]	4.48 nM
COc1ccc(S(=O)(=O)N(CC(C)C)CC(O)C(Cc2ccc(NCC3=C(c4sc5c(c4C(=O)O)CC(C)(C)CC5)C4CC(C3)C4(C)C)cc2)NC(=O)OC2COC3(C)OCCC23)cc1 (centres unmarked) [Compound I-626]	4.58 nM
COc1ccc(S(=O)(=O)N(CC(C)C)CC(O)C(Cc2ccc(N3CC(Oc4ccc(-c5sc6c(c5C(=O)O)CC(C)(C)CC6)cc4)C3)cc2)NC(=O)OC2COC3(C)OCCC23)cc1 (centres unmarked) [Compound I-370]	5.02 nM
CC1(C)CCc2sc(-c3ccc(C(F)(F)F)cc3CNc3ccc(CC(NC(=O)OC4COC5OCCC45)C(O)CN(CC4CCCC4)S(=O)(=O)c4ccc5ncsc5c4)cc3)c(C(=O)O)c2C1 (centres unmarked) [Compound I-873]	8.43 nM

SMILES	IC50
COc1ccc(S(=O)(=O)N(CC(C)C)CC(O)C(Cc2ccc(NCc3ccccc3-c3c(C(=O)O)[nH]c4c3CCCC4=O)cc2)NC(=O)OC2COC3(C)OCCC23)cc1 (centres unmarked) [Compound I-495]	1.48 nM
COc1ccc(S(=O)(=O)N(CC(C)C)CC(O)C(Cc2ccc(NCC3CCCCC3NC(=O)c3sc4c(c3C(=O)O)CC(C)(C)CC4)cc2)NC(=O)OC2COC3(C)OCCC23)cc1 (centres unmarked) [Compound I-611]	1.95 nM
COc1ccc(S(=O)(=O)N(CC(C)C)CC(O)C(Cc2ccc(OCc3ccccc3-c3ccc4c(C(=O)O)csc4c3)cc2)NC(=O)OC2COC3(C)OCCC23)cc1 (centres unmarked) [Compound I-179]	1.1 nM
COc1ccc(S(=O)(=O)N(CC(C)C)CC(O)C(Cc2ccc(N(C)Cc3ncccc3C(=O)Nc3sc4c(c3C(=O)O)CC(C)(C)CC4)cc2)NC(=O)OC2COC3(C)OCCC23)cc1 (centres unmarked) [Compound I-694]	2.27 nM
COc1ccc(S(=O)(=O)N(CC(C)C)CC(O)C(Cc2ccc(N(C)Cc3cc(N4CC(C)(C)C4=O)ccc3-c3sc4c(c3C(=O)O)CC(C)(C)CC4)cc2)NC(=O)OC2COC3(C)OCCC23)cc1 (centres unmarked) [Compound I-730]	2.84 nM
COc1ccc(S(=O)(=O)N(CC(C)C)CC(O)C(Cc2ccc(NCc3ccccc3-c3ccc4c(c3C(=O)O)CC(C)(C)CC4)cc2)NC(=O)OC2COC3(C)OCCC23)cc1 (centres unmarked) [Compound I-392]	2.4 nM
COc1ccc(S(=O)(=O)N(CC(C)C)CC(O)C(Cc2ccc(Nc3cccc(-c4sc5c(c4C(=O)O)CC(C)(C)CC5)c3)cc2)NC(=O)OC2COC3(C)OCCC23)cc1 (centres unmarked) [Compound I-478]	2.25 nM
COc1ccc(S(=O)(=O)N(CC(C)C)CC(O)C(Cc2ccc(N3CCC(C(=O)Nc4sc5c(c4C(=O)O)CC(C)(C)CC5)C3)cc2)NC(=O)OC2COC3(C)OCCC23)cc1 (centres unmarked) [Compound I-645]	2.51 nM
COc1ccc(S(=O)(=O)N(CC(C)C)CC(O)C(Cc2ccc(NCc3ccc(C(F)(F)F)cc3C(=O)Nc3sc4c(c3C(=O)O)CC(C)(C)CC4)cc2)NC(=O)OC2COC3(C)OCCC23)cc1 (centres unmarked) [Compound I-690]	7.7 nM
COc1ccc(S(=O)(=O)N(CC(C)C)CC(O)C(Cc2ccc(NCc3c(-c4sc5c(c4C(=O)O)CC(C)(C)CC5)ccc(F)c3F)cc2)NC(=O)OC2COC3(C)OCCC23)cc1 (centres unmarked) [Compound I-279]	1.6 nM
COc1ccc(S(=O)(=O)N(CC(C)C)CC(O)C(Cc2ccc(OCc3ccccc3-c3ccc4c(O)c(-c5ccc(Oc6ccccc6)cc5)c(=O)n(C)c4c3)cc2)NC(=O)OC2COC3OCCC23)cc1 (centres unmarked) [Compound I-822]	2.08 nM
COc1ccc(S(=O)(=O)N(CC(C)C)CC(O)C(Cc2ccc(NCc3cc(OC(F)(F)F)ccc3-c3sc4c(c3C(=O)O)CC(C)(C)CC4)cc2)NC(=O)OC2COC3(C)OCCC23)cc1 (centres unmarked) [Compound I-678]	5.48 nM
COc1ccc(S(=O)(=O)N(CC(C)C)CC(O)C(Cc2ccc(NCc3ccc(-c4c(C(=O)O)sc5c4CC(C)(C)CC5)cc3)cc2)NC(=O)OC2COC3(C)OCCC23)cc1 (centres unmarked) [Compound I-356]	3.3 nM
COc1ccc(S(=O)(=O)N(CC(C)C)CC(O)C(Cc2ccc(OCc3ccc(C(=O)O)c(-c4ccc(F)cc4F)c3)cc2)NC(=O)OC2COC3(C)OCCC23)cc1 (centres unmarked) [Compound I-149]	1.27 nM
COc1ccc(S(=O)(=O)N(CC(C)C)CC(O)C(Cc2ccc(Nc3ncc(-c4sc5c(c4C(=O)O)CC(C)(C)CC5)cn3)cc2)NC(=O)OC2COC3(C)OCCC23)cc1 (centres unmarked) [Compound I-433]	2.49 nM
COc1ccc(S(=O)(=O)N(CC(C)C)CC(O)C(Cc2ccc(N(Cc3ccccc3-c3sc4c(c3C(=O)O)CC(C)(C)CC4)CC3CCC3)cc2)NC(=O)OC2COC3(C)OCCC23)cc1 (centres unmarked) [Compound I-463]	5.13 nM
COc1ccc(S(=O)(=O)N(CC(C)C)CC(O)C(Cc2ccc(NCc3cc(Oc4ccccc4)ccc3-c3sc4c(c3C(=O)O)CC(C)(C)CC4)cc2)NC(=O)OC2COC3(C)OCCC23)cc1 (centres unmarked) [Compound I-654]	8.75 nM
COc1ccc(S(=O)(=O)N(CC2CCCC2)CC(O)C(Cc2ccc(NCc3ccccc3C(=O)Nc3sc4c(c3C(=O)O)CC(C)(C)CC4)cc2)NC(=O)OC2COC3(C)OCCC23O)cc1 (centres unmarked) [Compound I-892]	4.06 nM
COc1ccc(S(=O)(=O)N(CC(C)C)CC(O)C(Cc2ccc(OCc3ccccc3-c3ccc(Cn4nc(C(=O)O)c5c4CCC(C)(C)C5)cc3)cc2)NC(=O)OC2COC3(C)OCCC23)cc1 (centres unmarked) [Compound I-213]	1.76 nM
COc1ccc(S(=O)(=O)N(CC(C)C)CC(O)C(Cc2ccc(N(C)CC3=C(c4sc5c(c4C(=O)O)CC(C)(C)CC5)C4CC(C3)C4(C)C)cc2)NC(=O)OC2COC3(C)OCCC23)cc1 (centres unmarked) [Compound I-628]	5.03 nM

Reference: patent US20170253607A1, “LONG-ACTING HIV PROTEASE INHIBITOR” (Shionogi & Co., Ltd., priority 2014, published 2017)
